Assay results reported in EP0707004A1, “1-Arylalcenyl 4-arylmethylpiperazinderivatives, process for their preparation and pharmaceutical composition containing them” (ADIR ET COMPAGNIE, priority 1994, dated 1996).

System: hyperactivité induite par la N-allylnormétazocine
Experiment: Antagonism of N-allylnormetazocine-induced hyperactivity
Type: in vivo
Conditions: dose 32 mg.kg⁻¹; rats; N-allylnormetazocine 50 mg/kg subcutaneous
Source text: Ce test a été mis au point par Snyder S.H. et al (J. Neuropsychiatry, 1989, 1 : 7-15). La N-allylnormetazocine ((+) SKF 10047) induit un comportement psychotique chez l'homme et est le prototype d'agoniste pour les récepteurs σ.
La mesure de l'hyperactivité induite par ce produit est donc utilisée comme modèle alternatif pour détecter l'activité antipsychotique des composés agissant sur les récepteurs σ.
Un groupe de 12 rats est traité avec le composé à tester avant l'administration sous-cutanée de 50 mg/kg de la N-allylnormetazocine. 30 minutes plus tard, les animaux sont placés dans un actimètre pendant 30 minutes.
L'halopéridol est utilisé comme composé de référence.

CCC(=Cc1ccccc1)C(=O)N1CCN(Cc2ccccc2)CC1 [Exemple 9, 1-(3-phényl-2-éthylprop-2-ènoyl)-4-benzylpipérazine]
antagonisme de l'hypermotilité induite par la N-allylnormétazocine: 42%
